Measurements published in PMC10316084, “Bacteroidota polysaccharide utilization system for branched dextran exopolysaccharides from lactic acid bacteria” (The Journal of Biological Chemistry, 2023).

Legend:
FjDusD = target: T1, FjDusD (Flavobacterium johnsoniae, UniProt A5FBI4); assay: isothermal titration calorimetry; format: binding; settings: 10 mM HEPES-NaOH pH 7.0, 25 °C; one-site model (n = 1)
T1 construct: gene Fjoh_4433; signal peptide evaluated by SignalP
T1 sequence (A5FBI4 22-494): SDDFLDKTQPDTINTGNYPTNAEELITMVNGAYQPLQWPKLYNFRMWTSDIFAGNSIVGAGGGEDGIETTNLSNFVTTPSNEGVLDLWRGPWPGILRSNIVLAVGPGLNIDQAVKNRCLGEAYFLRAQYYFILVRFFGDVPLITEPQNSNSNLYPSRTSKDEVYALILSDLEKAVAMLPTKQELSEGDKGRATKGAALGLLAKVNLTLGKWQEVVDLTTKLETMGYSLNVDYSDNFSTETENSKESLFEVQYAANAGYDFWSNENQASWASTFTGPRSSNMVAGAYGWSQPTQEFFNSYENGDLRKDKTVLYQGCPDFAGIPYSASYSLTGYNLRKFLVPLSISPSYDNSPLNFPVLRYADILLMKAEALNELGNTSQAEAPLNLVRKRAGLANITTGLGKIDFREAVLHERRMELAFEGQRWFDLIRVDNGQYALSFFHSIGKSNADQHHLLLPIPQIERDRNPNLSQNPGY
From the text: isothermal titration calorimetry on FjDusD

FjGH66 = target: T2, FjGH66 (Flavobacterium johnsoniae, UniProt A5FBI2); assay: X-ray crystal structure, […] Å; format: binding
T2 construct: gene Fjoh_4431; domains 41-126, 127-464, 485-586
T2 sequence (A5FBI2 34-586): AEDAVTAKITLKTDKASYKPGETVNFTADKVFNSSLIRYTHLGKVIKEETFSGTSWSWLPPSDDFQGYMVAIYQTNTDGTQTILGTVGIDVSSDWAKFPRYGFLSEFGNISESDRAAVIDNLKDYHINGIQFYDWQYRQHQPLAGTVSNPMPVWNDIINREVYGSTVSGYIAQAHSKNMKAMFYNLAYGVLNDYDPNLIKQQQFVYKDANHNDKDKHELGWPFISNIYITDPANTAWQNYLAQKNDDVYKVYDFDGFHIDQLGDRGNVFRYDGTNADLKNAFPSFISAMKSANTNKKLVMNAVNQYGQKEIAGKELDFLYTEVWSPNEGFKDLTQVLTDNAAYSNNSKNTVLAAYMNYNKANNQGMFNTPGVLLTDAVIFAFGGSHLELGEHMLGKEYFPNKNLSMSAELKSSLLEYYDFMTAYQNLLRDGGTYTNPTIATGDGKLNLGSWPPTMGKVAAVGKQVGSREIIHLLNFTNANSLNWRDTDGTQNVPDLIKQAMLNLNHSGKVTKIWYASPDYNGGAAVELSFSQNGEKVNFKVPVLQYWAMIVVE

Row | Structure (SMILES) | Kd (FjDusD) | further results
1 | OC[C@H]1O[C@H](OC[C@H]2OC(O)[C@H](O)[C@@H](O)[C@@H]2O)[C@H](O)[C@@H](O)[C@@H]1O (stereo partly drawn) [Isomaltose] | – | X-ray crystal structure, 1.80 Å (FjGH66; crystal soaked with 10 mM IG2): complexes with glucose, IG2, or IG3 were determined
2 | OC[C@H]1O[C@H](OC[C@H]2O[C@H](OC[C@H]3OC(O)[C@H](O)[C@@H](O)[C@@H]3O)[C@H](O)[C@@H](O)[C@@H]2O)[C@H](O)[C@@H](O)[C@@H]1O (stereo partly drawn) [Isomaltotriose] | 621 ± 23 µM | –
3 | OC[C@H]1OC(O)[C@H](O)[C@@H](O)[C@@H]1O (stereo partly drawn) [glucose] | – | X-ray crystal structure, 1.80 Å (FjGH66; crystal soaked with 10 mM glucose): complexes with glucose, IG2, or IG3 were determined

More lines, main results first:

Row | Kd (FjDusD) | Structure (SMILES) | further results
4 | 467 ± 156 µM | OC[C@H]1O[C@H](OC[C@H]2O[C@H](OC[C@H]3O[C@H](OC[C@H]4O[C@H](OC[C@H]5O[C@H](OC[C@H]6OC(O)[C@H](O)[C@@H](O)[C@@H]6O)[C@H](O)[C@@H](O)[C@@H]5O)[C@H](O)[C@@H](O)[C@@H]4O)[C@H](O)[C@@H](O)[C@@H]3O)[C@H](O)[C@@H](O)[C@@H]2O)[C@H](O)[C@@H](O)[C@@H]1O (stereo partly drawn) [Isomaltohexaose] | –
5 | 226 ± 29 µM | OC[C@H]1O[C@H](OC[C@H]2O[C@H](OC[C@H]3O[C@H](OC[C@H]4O[C@H](OC[C@H]5OC(O)[C@H](O)[C@@H](O)[C@@H]5O)[C@H](O)[C@@H](O)[C@@H]4O)[C@H](O)[C@@H](O)[C@@H]3O)[C@H](O)[C@@H](O)[C@@H]2O)[C@H](O)[C@@H](O)[C@@H]1O (stereo partly drawn) [Isomaltopentaose] | –
6 | 326 ± 14 µM | OC[C@H]1O[C@H](OC[C@H]2O[C@H](OC[C@H]3O[C@H](OC[C@H]4OC(O)[C@H](O)[C@@H](O)[C@@H]4O)[C@H](O)[C@@H](O)[C@@H]3O)[C@H](O)[C@@H](O)[C@@H]2O)[C@H](O)[C@@H](O)[C@@H]1O (stereo partly drawn) [Isomaltotetraose] | –
